Data taken from patent publication US20240279278A1, “NMU RECEPTOR 2 AGONISTS” (Boehringer Ingelheim International GmbH, priority 2023, published 2024).
Starred links: 1 amine or outer side, 2 acyl side, 3 side chain; linkers in the order of their positions; H or OH if unused. Non-standard residues stand in square brackets, D forms with d. Residues, ends and D or L forms follow the SMILES beside them. *: point of attachment. Pipz(1-CH2CO,4-CH2CH2NH) = O=C(CN1CCN(CCN[*:1])CC1)[*:2]; C18 diacid = O=C(O)CCCCCCCCCCCCCCCCC(=O)*; γGlu = O=C(O)[C@H](CCC(=O)[*:2])N[*:1]; 3Pal = N[C@@H](Cc1cccnc1)C(=O)O; 4Pal = N[C@@H](Cc1ccncc1)C(=O)O; NMeL = CN[C@@H](CC(C)C)C(=O)O; Nle = CCCC[C@H](N)C(=O)O; Sar = CNCC(=O)O

What was measured:
Format in all cases: cell-based
human NMUR1 receptor = target: T1, human NMUR1 receptor (Homo sapiens, UniProt Q9HB89); experiment: IP1 Gq HTRF assay, activation of human NMUR1 in buffer; conditions: CHO-K1 cells expressing human NMUR1, stimulation buffer with 0.1% BSA; read-out: EC50 (hNMUR1) buffer
T1 construct: expressed in transfected cells; host or cells: CHO-K1
T1 sequence (Q9HB89 1-426): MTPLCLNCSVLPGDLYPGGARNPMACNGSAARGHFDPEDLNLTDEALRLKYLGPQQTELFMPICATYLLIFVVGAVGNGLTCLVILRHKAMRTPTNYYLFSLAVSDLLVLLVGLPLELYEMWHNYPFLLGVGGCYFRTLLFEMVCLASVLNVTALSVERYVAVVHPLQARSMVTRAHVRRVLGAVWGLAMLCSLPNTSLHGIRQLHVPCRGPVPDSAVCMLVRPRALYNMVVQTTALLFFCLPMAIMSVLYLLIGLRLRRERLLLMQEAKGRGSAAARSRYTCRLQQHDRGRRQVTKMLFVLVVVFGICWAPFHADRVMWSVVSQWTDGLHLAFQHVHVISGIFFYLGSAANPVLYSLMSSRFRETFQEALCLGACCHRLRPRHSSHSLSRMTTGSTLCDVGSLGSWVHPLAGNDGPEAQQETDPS
In short: (§1)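 IP-One HTRF competition (665/620 nm ratio) read after 1 h agonist exposure at 37 °C in pH 7.4 HEPES/HBSS stimulation buffer containing 50 mM LiCl, 0.1% BSA, 1% DMSO. Cells: CHO-K1 stably expressing human NMUR2 or NMUR1. EC50 by 4-parameter nonlinear regression of 8-point curves.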

human NMUR2 receptor [1] = target: T2, human NMUR2 receptor (Homo sapiens, UniProt Q9GZQ4); experiment: IP1 Gq HTRF assay, activation of human NMUR2 in buffer; design: expressed in transfected cells; host or cells: CHO-K1; conditions: CHO-K1 cells expressing human NMUR2, stimulation buffer with 0.1% BSA; read-out: EC50 (hNMUR2) buffer
T2 sequence (Q9GZQ4 whole entry): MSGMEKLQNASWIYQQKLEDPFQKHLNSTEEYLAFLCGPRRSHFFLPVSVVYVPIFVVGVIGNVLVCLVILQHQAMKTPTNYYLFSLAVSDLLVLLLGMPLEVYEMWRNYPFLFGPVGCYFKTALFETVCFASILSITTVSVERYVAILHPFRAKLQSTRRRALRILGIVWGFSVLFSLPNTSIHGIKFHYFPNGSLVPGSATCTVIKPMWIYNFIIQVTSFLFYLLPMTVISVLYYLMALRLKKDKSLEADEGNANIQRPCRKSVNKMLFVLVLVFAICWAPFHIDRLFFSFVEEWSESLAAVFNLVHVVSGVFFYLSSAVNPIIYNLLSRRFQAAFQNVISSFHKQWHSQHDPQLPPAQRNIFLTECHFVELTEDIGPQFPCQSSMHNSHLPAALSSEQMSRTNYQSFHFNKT
In short: as §1

human NMUR2 receptor [2] = target: T2, human NMUR2 receptor; experiment: IP1 Gq HTRF assay, activation of human NMUR2 in human plasma; design: expressed in transfected cells; host or cells: CHO-K1; conditions: CHO-K1 cells expressing human NMUR2, 100% human plasma; read-out: EC50 (hNMUR2) human plasma
In short: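 EC50 obtained via 4-parameter sigmoidal regression of HTRF IP-One signal (665 nm/620 nm), which falls as intracellular IP1 rises. Stimulation: 1 h, 37° C, peptides in human plasma plus 50 mM LiCl, 1% DMSO final, on NMUR2-expressing CHO-K1 cells, 8 concentrations.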

Row | SMILES | EC50 (human NMUR1 receptor) [µM] | EC50 (human NMUR2 receptor [1]) [µM] | EC50 (human NMUR2 receptor [2]) [µM]
1 | CCCC[C@H](NC(=O)[C@H](CC(C)C)N(C)C(=O)[C@H](Cc1ccccc1)NC(=O)[C@H](Cc1ccc(O)cc1)NC(=O)CN1CCN(CCNC(=O)CN(C)C(=O)CN(C)C(=O)CN(C)C(=O)CN(C)C(=O)CN(C)C(=O)CN(C)C(=O)CN(C)C(=O)CN(C)C(=O)CN(C)C(=O)CN(C)C(=O)CN(C)C(=O)CN(C)C(=O)CN(C)C(=O)CN(C)C(=O)CN(C)C(=O)CC[C@H](NC(=O)CC[C@H](NC(=O)CC[C@H](NC(=O)CCCCCCCCCCCCCCCCC(=O)O)C(=O)O)C(=O)O)C(=O)O)CC1)C(=O)N[C@@H](Cc1ccncc1)C(=O)N1CCC[C@H]1C(=O)N[C@@H](CCCNC(=N)N)C(=O)NCC(N)=O [Compound 45, C18DA-gGlu3-Sar15-AEPipAc-Tyr-Phe-NMeLeu-Nle-4Pal-Pro-Arg-Gly-NH2] ({C18 diacid-γGlu-γGlu-γGlu}-[Sar][Sar][Sar][Sar][Sar][Sar][Sar][Sar][Sar][Sar][Sar][Sar][Sar][Sar][Sar][Pipz(1-CH2CO,4-CH2CH2NH)]YF[NMeL][Nle][4Pal]PRG-NH2) | > 1 | 0.03 | 0.129
2 | CCCC[C@H](NC(=O)[C@H](CC(C)C)N(C)C(=O)[C@H](Cc1ccccc1)NC(=O)[C@H](Cc1ccc(O)cc1)NC(=O)CN1CCN(C(=O)CN(C)C(=O)CN(C)C(=O)CN(C)C(=O)CN(C)C(=O)CN(C)C(=O)CN(C)C(=O)CN(C)C(=O)CN(C)C(=O)CN(C)C(=O)CN(C)C(=O)CN(C)C(=O)CN(C)C(=O)CN(C)C(=O)CN(C)C(=O)CN(C)C(=O)CC[C@H](NC(=O)CC[C@H](NC(=O)CC[C@H](NC(=O)CCCCCCCCCCCCCCCCC(=O)O)C(=O)O)C(=O)O)C(=O)O)CC1)C(=O)N[C@@H](CCCNC(=N)N)C(=O)N1CCC[C@H]1C(=O)N[C@@H](CCCNC(=N)N)C(=O)NCC(N)=O [Compound 75, C18DA-gGlu3-Sar15-PipAc-Tyr-Phe-NMeLeu-Nle-Arg-Pro-Arg-Gly-NH2] (HELM PEPTIDE1{[O=C(O)CCCCCCCCCCCCCCCCC(=O)[*:2]].[gGlu].[gGlu].[gGlu].[Sar].[Sar].[Sar].[Sar].[Sar].[Sar].[Sar].[Sar].[Sar].[Sar].[Sar].[Sar].[Sar].[Sar].[Sar].[O=C(CN1CCN([*:1])CC1)[*:2]].Y.F.[meL].[Nle].R.P.R.G.[am]}$$$$V2.0) | 0.13 | 0.0007 | 0.0035
3 | CCCC[C@H](NC(=O)[C@H](CC(C)C)N(C)C(=O)[C@H](Cc1ccccc1)NC(=O)[C@H](Cc1ccc(O)cc1)NC(=O)CN1CCN(CCNC(=O)CN(C)C(=O)CN(C)C(=O)CN(C)C(=O)CN(C)C(=O)CN(C)C(=O)CN(C)C(=O)CN(C)C(=O)CN(C)C(=O)CN(C)C(=O)CN(C)C(=O)CN(C)C(=O)CN(C)C(=O)CC[C@H](NC(=O)CC[C@H](NC(=O)CC[C@H](NC(=O)CC[C@H](NC(=O)CCCCCCCCCCCCCCCCCCC(=O)O)C(=O)O)C(=O)O)C(=O)O)C(=O)O)CC1)C(=O)N[C@@H](CCCCN)C(=O)N(C)[C@@H](C)C(=O)N[C@@H](CCCNC(=N)N)C(=O)NCC(N)=O [Compound 19, C20DA-gGlu4-Sar12-AEPipAc-Tyr-Phe-NMeLeu-Nle-Lys-NMeAla-Arg-Gly-NH2] | 1.4 | 0.0057 | 0.0366
4 | CCCC[C@H](NC(=O)[C@H](CC(C)C)N(C)C(=O)[C@H](Cc1ccccc1)NC(=O)[C@H](Cc1ccc(O)cc1)NC(=O)CN1CCN(CCNC(=O)CN(C)C(=O)CN(C)C(=O)CN(C)C(=O)CN(C)C(=O)CN(C)C(=O)CN(C)C(=O)CN(C)C(=O)CN(C)C(=O)CN(C)C(=O)CN(C)C(=O)CN(C)C(=O)CN(C)C(=O)CN(C)C(=O)CN(C)C(=O)CN(C)C(=O)CC[C@H](NC(=O)CC[C@H](NC(=O)CC[C@H](NC(=O)CCCCCCCCCCCCCCCCC(=O)O)C(=O)O)C(=O)O)C(=O)O)CC1)C(=O)N[C@@H](Cc1cccnc1)C(=O)N1CCC[C@H]1C(=O)N[C@@H](CCCNC(=N)N)C(=O)NCC(N)=O [Compound 54, C18DA-gGlu3-Sar15-AEPipAc-Tyr-Phe-NMeLeu-Nle-3Pal-Pro-Arg-Gly-NH2] ({C18 diacid-γGlu-γGlu-γGlu}-[Sar][Sar][Sar][Sar][Sar][Sar][Sar][Sar][Sar][Sar][Sar][Sar][Sar][Sar][Sar][Pipz(1-CH2CO,4-CH2CH2NH)]YF[NMeL][Nle][3Pal]PRG-NH2) | > 1 | 0.028 | 0.122
5 | CCCC[C@H](NC(=O)[C@H](CC(C)C)N(C)C(=O)[C@H](Cc1ccccc1)NC(=O)[C@H](Cc1ccc(O)cc1)NC(=O)CN1CCN(CCNC(=O)CN(C)C(=O)CN(C)C(=O)CN(C)C(=O)CN(C)C(=O)CN(C)C(=O)CN(C)C(=O)CN(C)C(=O)CN(C)C(=O)CN(C)C(=O)CC[C@H](NC(=O)CC[C@H](NC(=O)CC[C@H](NC(=O)CCCCCCCCCCCCCCCCCCC(=O)O)C(=O)O)C(=O)O)C(=O)O)CC1)C(=O)N[C@@H](CCCNC(=N)N)C(=O)N(C)[C@@H](C)C(=O)N[C@@H](CCCNC(=N)N)C(=O)NCC(N)=O [Compound 62, C20DA-gGlu3-Sar9-AEPipAc-Tyr-Phe-NMeLeu-Nle-Arg-NMeAla-Arg-Gly-NH2] (HELM PEPTIDE1{[O=C(O)CCCCCCCCCCCCCCCCCCC(=O)[*:2]].[gGlu].[gGlu].[gGlu].[Sar].[Sar].[Sar].[Sar].[Sar].[Sar].[Sar].[Sar].[Sar].[O=C(CN1CCN(CCN[*:1])CC1)[*:2]].Y.F.[meL].[Nle].R.[meA].R.G.[am]}$$$$V2.0) | 0.44 | 0.0031 | 0.0142
6 | CCCC[C@H](NC(=O)[C@H](CC(C)C)N(C)C(=O)[C@H](Cc1ccccc1)NC(=O)[C@H](Cc1ccc(O)cc1)NC(=O)CN1CCN(CCNC(=O)CN(C)C(=O)CN(C)C(=O)CN(C)C(=O)CN(C)C(=O)CN(C)C(=O)CN(C)C(=O)CC[C@H](NC(=O)CC[C@H](NC(=O)CCCCCCCCCCCCCCCCC(=O)O)C(=O)O)C(=O)O)CC1)C(=O)N[C@@H](CCCNC(=N)N)C(=O)N1CCC[C@H]1C(=O)N[C@@H](CCCNC(=N)N)C(=O)NCC(N)=O [Compound 71, C18DA-gGlu2-Sar6-AEPipAc-Tyr-Phe-NMeLeu-Nle-Arg-Pro-Arg-Gly-NH2] (HELM PEPTIDE1{[O=C(O)CCCCCCCCCCCCCCCCC(=O)[*:2]].[gGlu].[gGlu].[Sar].[Sar].[Sar].[Sar].[Sar].[Sar].[O=C(CN1CCN(CCN[*:1])CC1)[*:2]].Y.F.[meL].[Nle].R.P.R.G.[am]}$$$$V2.0) | 0.13 | 0.0015 | 0.0145
7 | CCCC[C@H](NC(=O)[C@H](CC(C)C)N(C)C(=O)[C@H](Cc1ccccc1)NC(=O)[C@H](Cc1ccc(O)cc1)NC(=O)CN1CCN(CCNC(=O)CN(C)C(=O)CN(C)C(=O)CN(C)C(=O)CN(C)C(=O)CN(C)C(=O)CN(C)C(=O)CN(C)C(=O)CN(C)C(=O)CN(C)C(=O)CN(C)C(=O)CN(C)C(=O)CN(C)C(=O)CN(C)C(=O)CN(C)C(=O)CN(C)C(=O)CC[C@H](NC(=O)CC[C@H](NC(=O)CC[C@H](NC(=O)CCCCCCCCCCCCCCCCC(=O)O)C(=O)O)C(=O)O)C(=O)O)CC1)C(=O)N[C@@H](Cc1c[nH]cn1)C(=O)N(C)[C@@H](C)C(=O)N[C@@H](CCCNC(=N)N)C(=O)NCC(N)=O [Compound 55, C18DA-gGlu3-Sar15-AEPipAc-Tyr-Phe-NMeLeu-Nle-His-NMeAla-Arg-Gly-NH2] (HELM PEPTIDE1{[O=C(O)CCCCCCCCCCCCCCCCC(=O)[*:2]].[gGlu].[gGlu].[gGlu].[Sar].[Sar].[Sar].[Sar].[Sar].[Sar].[Sar].[Sar].[Sar].[Sar].[Sar].[Sar].[Sar].[Sar].[Sar].[O=C(CN1CCN(CCN[*:1])CC1)[*:2]].Y.F.[meL].[Nle].H.[meA].R.G.[am]}$$$$V2.0) | > 1 | 0.029 | 0.294
